# Like-named read-outs stand apart in the source and are kept apart here.
# How the values were obtained:
# [1] = THP1-Dual cytotoxicity (Cell Titer Glo, ATP); assay type: cell-based, human; settings: human, THP1-Dual cells, read-out: Thp1 cytotox CC50
# Excerpt: FIG. 9C is a CC50 (50% cytotoxic concentration) graph of AV-C dependent IRF activation in THP1-Dual cells, determined with an 8-point dose response experiment. Cell viability was monitored based on quantitation of ATP present, as an indicator of metabolically active cells, where luminescence is proportional to the amount of ATP present, using Cell-Titer Glo (Promega).
# The OTRADI Small Molecule Library of approximately 246,000 diverse compounds (see below for description) was screened using the THP1-Dual based HTS platform described above. All transfer steps in the screen are fully automated, thus reducing variability. Primary screening included a single data point or dose for each molecule. After data normalization was applied for each assay run, “hit” selection was performed on the plates that pass the quality control (QC) criterion. Hits were defined as samples having values above the activity cutoff determined based on noise level of the assay to reduce false positive rates. In the pilot study discussed above this activity value was >3σ above the ISRE mean with the added criteria of NFκB activation being lower than […] from the mean to identify IRF selective compounds. The ratio of ISRE:NFκB activity was also calculated as a selectivity index for prioritizing hit selection. Primary hits underwent secondary screening to determine the 50% effective concentration (EC50) and 50% cytotoxic concentration (CC50) of these agents using an 8-point dose-response curve in the human THP1-Dual cells. Cytotoxicity was measured in the plate using Cell Titer Glo (Promega). Identified candidate compounds were further screened (orthogonal screen) for cross species activity in the validated mouse J774-Dual assay using an 8-point dose-response format to determine EC50 and CC50 values as well as ISRE:NFκB ratios. A general process flow for the experimental design laid out above is depicted at FIG. 12.
# [2] = system: IRF-Lucia luciferase reporter (ISRE) in THP1-Dual cells; test: THP1-Dual IRF-Lucia luciferase reporter assay (ISRE activation); assay type: cell-based, human; settings: for EC50: Homo sapiens, THP1-Dual, read-out: THP1 IRF EC50; for Average ISRE/NFκB (Range) / Average ISRE % Activation: human THP1 pilot screen, 10 μM, 3 screens; for Average ISRE % Activation: 24 hours, percent of LPS activation signal +/− SD
# Protocol: THP1 Dual (InvivoGen) cell suspensions were cultured in RPMI 1640 (Hyclone, Logan, Utah) supplemented with 10% fetal bovine serum (Hyclone), 100 U/mL Normocin (Invivogen), and 50 U/mL PenStrep (Gibco, Dublin, Ireland) between a density of 7·10^5-2·10^6 cells/mL. Every other passage, media was supplemented with 5 U/mL Blasticidin and 100 U/mL Zeocin to maintain the expression constructs. White, flat-bottom 384-well plates (Greiner, Kremsmunster, Austria, 781080) were seeded with 2.5·10^4 cells/well in a total of 50 μL media containing 5 ng/mL phorbolmyristic acid (PMA) using a Matrix WellMate (Thermo Scientific) dispenser. After 48 hours of incubation at 37° C., media was removed using a BioTek ELx405 CW plate washer set to aspirate and wash each well three times with 65 μL 1×PBS. Plates were reloaded with 50 μL media without PMA and treatments added. Lipopolysaccharide in dimethylsulfoxide (DMSO) was transferred to control wells using a HP D300 microdispenser to a final concentration of 313 ng/mL. Compounds from chemical library plates were copied using a Sciclone (Caliper LifeSciences) mounted with a 384-pin transfer tool to obtain a final concentration of 10 μM. After incubation with treatments for 24 hours, 10 μL of supernatant media from each well was transferred into a white, flat-bottom 384-well plate for luminescence readout and a black-walled, clear flat-bottom 384-well plate for absorbance readout.
# Specifically, to enable screening of novel chemical entities (NCEs) in a larger screening effort, a robust high-throughput cell-based assay system for primary hit identification of ISRE activators based on the above-mentioned target validation was desired. Human ISRE activity was verified using a THP-1 monocyte line containing the NF-κB-SEAP and IRF-Lucia luciferase dual reporter (THP1-Dual; Invivogen) that features two reporter genes, SEAP (secreted embryonic alkaline phosphatase) and Lucia luciferase, thereby enabling the simultaneous study of the NF-κB and IRF signalling pathways. The Lucia luciferase reporter is under the control of an ISG54 (interferon-stimulated gene) minimal promoter in conjunction with five IFN-stimulated response elements. The SEAP gene is driven by an IFN-β minimal promoter fused to five copies of the NF-κB consensus transcriptional response element and three copies of the c-Rel binding site. Both reporter proteins are readily measurable in the cell culture supernatant when using QUANTI-LUC™ and QUANTI-Blue SEAP detection reagents.
# The responsiveness of the human THP-1 Dual cell line was evaluated in an array of assay conditions to obtain sensitive and reproducible results for the activation of IRF and NF-κB reporters. […] All transfer steps are fully automated using high throughput robotic equipment. Briefly, cells are seeded in differentiation medium using a Matrix WellMate fitted with the WellMate Stacker (Thermo Scientific) and incubated at 37° C. with 5% CO2 for 48 h. Following differentiation, cells are washed using a BioTek ELx405 Select CW plate washer and growth medium added with the Matrix WellMate. Programmed control treatments are added to wells using a D300 digital dispenser fitted with T8+ dispense heads (Hewlett Packard) designed to dispense nanoliter quantities of material. Compounds from library plates are added using a pin tool fitted to a Sciclone ALH 3000 Workstation (Caliper Life Sciences) programmed with Maestro v4.4. After treatment, plates are returned to incubators for 24 hours. To measure reporter expression, supernatant is collected using the Sciclone and dispensed into 2 plates: 1) a white 384-well assay plate for Lucia luminescence measurements and 2) a clear-bottom black 384-well assay plate for SEAP absorbance measurements.
# J774-Dual cytotoxicity = assay type: cell-based, mouse; settings: mouse, J774-Dual cells, read-out: J774 cytotox CC50
# Protocol: The OTRADI Small Molecule Library of approximately 246,000 diverse compounds (see below for description) was screened using the THP1-Dual based HTS platform described above. All transfer steps in the screen are fully automated, thus reducing variability. Primary screening included a single data point or dose for each molecule. After data normalization was applied for each assay run, “hit” selection was performed on the plates that pass the quality control (QC) criterion. Hits were defined as samples having values above the activity cutoff determined based on noise level of the assay to reduce false positive rates. […] The ratio of ISRE:NFκB activity was also calculated as a selectivity index for prioritizing hit selection. Primary hits underwent secondary screening to determine the 50% effective concentration (EC50) and 50% cytotoxic concentration (CC50) of these agents using an 8-point dose-response curve in the human THP1-Dual cells. Cytotoxicity was measured in the plate using Cell Titer Glo (Promega). Identified candidate compounds were further screened (orthogonal screen) for cross species activity in the validated mouse J774-Dual assay using an 8-point dose-response format to determine EC50 and CC50 values as well as ISRE:NFκB ratios. A general process flow for the experimental design laid out above is depicted at FIG. 12.
# [3] = Human Reporter Cell Line, 8-point dose response
Compound,CC50 ([1]; Human Reporter Cell Line THP1) [µM],CC50 (J774-Dual cytotoxicity; Mouse Reporter Cell Line J774) [µM],also measured
CC(C)c1ccc(C(=O)Nc2ccc(N3CCN(C(=O)c4ccco4)CC3)cc2)cc1 [NA-4],–,–,"CC50 ([1]; Human Reporter Cell Line): 37.8 µM; EC50 [2, 3]: ~13.2 µM; CC50 (J774-Dual cytotoxicity; Mouse Reporter Cell Line): > 25 µM"
O=C(Nc1ccc(N2CCN(C(=O)c3cccs3)CC2)cc1)c1ccc2cc(Br)ccc2c1 [NA-17],–,–,"CC50 ([1]; Human Reporter Cell Line): 14.6 µM; EC50 [2, 3]: 2.4 µM; CC50 (J774-Dual cytotoxicity; Mouse Reporter Cell Line): > 25 µM"
O=C(Nc1ccc(N2CCN(C(=O)c3cccs3)CC2)cc1)c1ccc(Br)c2ncccc12 [NA-18],–,–,"CC50 ([1]; Human Reporter Cell Line): > 25 µM; EC50 [2, 3]: 3.08 µM; CC50 (J774-Dual cytotoxicity; Mouse Reporter Cell Line): > 25 µM"
O=C(Nc1ccc(N2CCN(C(=O)c3cccs3)CC2)cc1)c1cc(Cl)ccc1Cl [NA-43],–,–,"CC50 ([1]; Human Reporter Cell Line): > 25 µM; EC50 [2, 3]: ~10.8 µM; CC50 (J774-Dual cytotoxicity; Mouse Reporter Cell Line): > 25 µM"
COc1ccc(C(=O)Nc2ccc(N3CCN(C(=O)c4cccs4)CC3)cc2)cc1[N+](=O)[O-] [NA-46],–,–,"CC50 ([1]; Human Reporter Cell Line): > 25 µM; EC50 [2, 3]: 0.109 µM; CC50 (J774-Dual cytotoxicity; Mouse Reporter Cell Line): > 25 µM"
O=C(Nc1ccc(N2CCN(C(=O)c3cccs3)CC2)cc1)c1ccc(OCc2cccnc2)cc1 [NA-61],–,–,"EC50 [2, 3]: 2.27 µM"
COc1ccc(C(=O)Nc2nc(-c3cc4ccccc4oc3=O)co2)c2ccccc12 [ND-18],–,–,EC50 ([2]; Human Reporter Cell Line THP1): 13.5 µM
O=C(Nc1nc(-c2cc3ccccc3oc2=O)cs1)c1ccc(OCc2ccccc2)cc1 [ND-22],9.79,–,EC50 ([2]; Human Reporter Cell Line THP1): 3.83 µM
Cc1ccc(-c2nc3cc(C(C)C)ccc3o2)cc1NC(=O)c1ccc(Cl)cc1 [ND-53],> 25,> 25,–
Cc1ccc(-c2nc3cc(C(C)C)ccc3o2)cc1NC(=O)c1ccc(F)c([N+](=O)[O-])c1 [ND-54],6.84,> 25,–
Cc1ccc(C(=O)Nc2cc(C(C)C)ccc2O)cc1[N+](=O)[O-] [ND-55],> 25,> 25,–
Cc1cc2nc(-c3ccc(C)c(Nc4[nH]c(=O)[nH]c(=O)c4[N+](=O)[O-])c3)oc2cc1C [ND-56],> 25,> 25,–
Cc1ccc(-c2nc3cc(C(C)C)ccc3o2)cc1[N+](=O)[O-] [ND-57],> 25,> 25,–
Cc1cc2nc(-c3ccc(C)c(N)c3)oc2cc1C [ND-59],> 25,> 25,–
CCOC(=O)C1=CCCC[C@H]1S(=O)(=O)Nc1ccc(F)cc1Cl [ND-72],> 25,> 25,–
ClCCCOc1ccc(-c2nc3ccc(OCCCCl)cc3o2)cc1 [ND-73],> 25,> 25,–

Compound,CC50 ([1]; Human Reporter Cell Line THP1) [µM],CC50 (J774-Dual cytotoxicity; Mouse Reporter Cell Line J774) [µM],also measured
Cc1cc2nc(-c3ccc(C)c(NC(=O)c4ccc(C(F)(F)F)c([N+](=O)[O-])c4)c3)oc2cc1C [ND-75],> 25,> 25,–
CC1=NN(c2ccccc2)C(=O)C1 [ND-77],> 25,> 25,–
COc1ccc(C(=O)Nc2ccc(OC)cc2OC)cc1 [ND-78],> 25,> 25,–
Cc1ccc(-c2nc3cc(OCCCN4CCCC4)ccc3o2)cc1[N+](=O)[O-] [ND-83],> 25,> 25,–
Cc1ccc(-c2nc3cc(O)ccc3o2)cc1[N+](=O)[O-] [ND-85],> 25,> 25,–
COc1ccc(C(=O)Nc2cc(-c3nc4ccccc4s3)ccc2C)cc1C(F)(F)F [ND-87],3.02,> 25,–
COc1ccc(C(=O)Nc2cccc(-c3nc4ccccc4s3)c2C)cc1[N+](=O)[O-] [ND-90],> 25,> 25,–
CN(C)CCCOc1ccc(-c2nc3cc(OCCCN4CCCC4)ccc3o2)cc1 [ND-93],> 25,> 25,–
CC(C)CC(=O)c1c(C(C)C)nn2ccccc12 [ND-97],> 25,> 25,–
Cc1ccc(-c2nc3cc(Cl)ccc3o2)cc1NC(=O)/C=C/c1cccc([N+](=O)[O-])c1 [ND-99],> 25,> 25,–
O=c1cc(NC[C@H](O)[C@H](O)[C@H](O)CO)[nH]c(=O)[nH]1 [ND-100],> 25,> 25,–
COc1ccc(S(=O)(=O)Nc2cc(-c3nc4cc(C)c(C)cc4o3)ccc2C)cc1[N+](=O)[O-] [ND-107],> 10,> 10,–
Cc1cc2nc(-c3c[nH]c4ccccc34)oc2cc1C [ND-108],> 10,> 10,–
"COC1=CC(=O)C(O)=C/C1=C\C=C\c1ccccc1 [OTR-0001624-001 (Obtusaquinone), Obtusaquinone, reference compound]",–,–,Average ISRE/NFκB (Range) [2]: 0.2 (0.2-0.3); Average ISRE % Activation [2]: 1.7 +/− 0.6%
"CCN(CC)CCCC(C)Nc1c2ccc(Cl)cc2nc2ccc(OC)cc12.Cl.Cl (stereo not drawn) [Quinacrine Hydrochloride, reference compound]",–,–,Average ISRE/NFκB (Range) [2]: 1.4 (1.0-2.0); Average ISRE % Activation [2]: 5.7 +/− 2.9%
Methapyrilene Hydrochloride [reference compound],–,–,Average ISRE/NFκB (Range) [2]: 1.4 (0.4-2.3)
